Assays:
Type in all cases: in vivo
corn [1] = test: Greenhouse study: GB alone or in combination with GA4, nine days; settings: GA4 120 mg/liter, GB 10,000 mg/liter; n = 7 plants
Method: (§1) In several of the following examples, corn was grown in greenhouse conditions, which are defined as follows. Seeds of a commercial hybrid variety were sown in Pro-Mix® BX (Pro-Mix is a registered trademark of Premier Horticulture Ltd.) with the addition of Osmocote (14-14-14) and gypsum in three-liter pots. Greenhouses were kept at 25±3° C. under a 16:8 hour photoperiod, with illumination at canopy level of ˜250 μmoles m^−2s^−1. Corn was typically fertigated with Peters 21-5-20+micronutrients, calcium ammonium nitrate and magnesium sulfate. Typical growth rates for corn under these conditions ranged from 4-5 cm/day.
(§2) In most greenhouse studies, spray applications were made. These applications were made in a track sprayer outfitted with a 4001E Teejet® nozzle (Teejet is available from and a registered trademark of Spraying Systems Co., Glendale Heights, Ill., USA) and applied at 40 psi. Although application volumes did vary between some studies, generally, 30 gallons/acre of spray solution was applied. Following spray applications, plants were returned to the greenhouse. Typically, experiments were blocked according to plant size, and a randomized complete block design (RCB) was used.
(§3) Synergy was determined using the following formula, in which a synergy factor is calculated by the Abbott method: % Cexp=A+B−(AB/100), here % Cexp is the expected efficacy and “in which A and B are the increase in growth (or resistance to stress) levels given by the single [plant growth regulators]. If the ratio between the experimentally observed efficacy of the mixture Cobs and the expected efficacy of the mixture is greater than 1, synergistic interactions are present in the mixture” (Gisi, Synergistic Interaction of Fungicides in Mixtures, The American Phytopathological Society, 86:11, 1273-1279, 1996).
In a greenhouse study, the effect of combining GB with GA4 was studied.

greenhouse-grown maize [2] = test: Greenhouse study: effect of GA3 dose +/- GB on growth, 7 and 14 days; settings: GA3 0 mg/liter, GB 10000 mg/liter
Method: as §1, §2, §3
In a separate study, the effect of one rate of GB on various doses of GA3 was studied.

corn [3] = test: Nutrient stress greenhouse study, GA3 and/or GB, 7 days; settings: GA3 120 mg/liter, GB 10,000 mg/liter; for Change in Height: n = 7 plants
Method: as §3
During rainy periods in March-May in the Midwestern United States, nitrogen fertilizer for corn is often limited due to a combination of leaching and mineralization. GB included with GA3 can help overcome the slow growth caused by low nutrients. In a greenhouse study in Long Grove, Ill. we evaluated the effect of GA3, GB and the combination under ‘normal nutrient’ and limited nutrient conditions.

potted corn plants [4] = test: Chronic drought stress greenhouse study, potted corn, 14 days; settings: 20 Percent Volumetric Water Content, 120 mg/liter GA3, 3000 mg/liter GB, n = 5
Method: In drought stress studies, corn plants were sprayed at the V4 stage with solutions containing a non-ionic surfactant (0.25%, v/v) at 30 gallons of spray solution/acre and growth was determined by change in height from time of treatment or fresh and dry shoot weight measurements 14 days later.
In greenhouse drought stress studies, corn plants were treated and subsequently watered with an automated irrigation system that maintained the soil moisture in the pots at 45% or 20% volumetric water content (“VWC”). Plants set to 20% after treatment took about 4 days without the automated system adding water to those pots to reach 20% VWC and then the automated system added water as needed to maintain 20% VWC. Total soil moisture capacity was 45% VWC and 20% VWC represented drought stress conditions. This would be considered chronic stress, as a lower level of VWC was maintained throughout the experiment after treatment.

greenhouse-grown maize [5] = test: Leaf chlorophyll by SPAD meter, GA3 dose +/- GB; settings: GA3 0 mg/liter, GB 10000 mg/liter; n = 8 plants
Method: In the same study, leaf chlorophyll was monitored by measurements with a SPAD meter (Minolta Model 502; Ramsey, N.J.). In this study, the chlorophyll level in the most recently fully-expanded leaf was measured at five different points and the results averaged.

potted corn plants [6] = test: Acute drought stress greenhouse study, potted corn, 7 and 14 days; settings: acute drought stressed; 120 ppm GA3, 3000 ppm GB; spray at V4
Method: In a separate acute drought stress greenhouse study conducted in Long Grove, Ill., corn plants were sprayed at V4 stage with solutions containing a non-ionic surfactant (0.25%, v/v) at 30 gallons of spray solution/acre and growth was determined by shoot height increase 7 and 14 days later. After treatment corn plants were not watered with the exception of one treatment of control (aqueous surfactant solution) that were watered as needed (well-watered control).

corn plants [7] = test: Chilling stress study (10° C. for five days) after spray with GA3 or GB; settings: chilling stress at 10° C. for five days; GA3 120 mg/liter, GB 3000 mg/liter; n = 7 plants
Method: In stress studies, plants were subjected to various stresses. In cold stress studies, after spraying, plants were grown in the greenhouse for an additional 48 hours before being measured and moved to a CMP6050 CONVIRON® chamber kept at 10° C. (Conviron is a registered trademark of Controlled Environments Limited Corporation). Illumination was at ˜225 μMoles, and light:dark conditions were on a 12:12 hour photoperiod. After 120 hours of chilling, plants were removed from the cold, measured, and returned to the greenhouse for 48 hours prior to harvest.
as §3
In a greenhouse and growth room study conducted in Long Grove, Ill., corn plants of a commonly grown hybrid were subjected to the following stress regimen: at two days post-foliar application, plants were moved into a controlled environment chamber, where the temperature was maintained at 10° C. with a 12:12 hour photoperiod for five days. At the end of the chilling period, the corn was moved back to the greenhouse for two days before destructive harvest.

corn plants [8] = test: Greenhouse study: growth of corn after V3 spray with GA3 or GB, nine days; settings: non-stressed greenhouse; spray at V3; GA3 120 mg/liter, GB 3000 mg/liter; n = 7
Method: as §1, §2
In a greenhouse study conducted in Long Grove, Ill., corn plants were sprayed at V3 stage with solutions containing a non-ionic surfactant (0.25%, v/v) at 30 gallons of spray solution/acre and growth was followed for nine days.
as §3
Based on a conservative approach, synergy was determined to be present at ratios of ≥1.10. When grown under non-stressed conditions, GA3 growth was synergized by the addition of 3,000 mg/liter glycine betaine (“GB”), with a synergy factor of 1.65 for growth and 1.68 for growth rate while dry weight/plant was not synergistic with a synergy factor of 0.95.

corn [9] = test: Greenhouse study: Gibberellins, (S)-ABA and Glycine betaine on corn growth; settings: GA3 or GA4 120 mg/liter, GB 10000 mg/liter, (S)-ABA 8.8 mg/liter
Method: as §1, §2
When gibberellins are combined with specific ratios of (S)-(+)-abscisic acid (“(S)-ABA”), a surprising enhancement of corn growth after application is often observed. The addition of GB to gibberellin+(S)-ABA spray combinations further increases the growth-promoting activity of the mixtures, as is shown in Table 6.

**Q.** What does the source list for `C[N+](C)(C)CC(=O)[O-]` [GB, Glycine betaine]?
**A.** Dry Weight (corn [1]): 7.47 g; Growth Rate (corn [1]): 6.1 cm/day; Plant Growth over 9 days (corn [1]): 55.2 cm; Growth Rate, 0-7 day(s) (greenhouse-grown maize [2]): 2.51 cm/day; Growth Rate, 0-14 day(s) (greenhouse-grown maize [2]): 6.23 cm/day; Plant Growth over 14 days (greenhouse-grown maize [2]): 43.6 cm; Plant Growth over 7 days (greenhouse-grown maize [2]; n = 8 plants): 17.6 cm; Dry Weight (corn [3]; Low Nutrients): 2.79 g; Leaf Area (L1-L6) (corn [3]; Low Nutrients): 611.73 cm^2; Change in Height (corn [3]; Low Nutrients): 24.54 cm; Dry Weight (corn [3]; Normal Nutrients): 3.25 g; Leaf Area (L1-L6) (corn [3]; Normal Nutrients): 656.76 cm^2; Change in Height (corn [3]; Normal Nutrients): 35.37 cm; Percent Dry Weight of Drought Stressed Control (potted corn plants [4]): 94.33%; Percent Fresh Weight of Drought Stressed Control (potted corn plants [4]): 93.16%; Chlorophyll (SPAD reading) 14 days (greenhouse-grown maize [5]): 34.0 SPAD reading; Shoot Growth 7 days after treatment as Percent Increase as compared to Drought Stressed Control (potted corn plants [6]): 95.9%; Shoot Growth 14 days after treatment as Percent Increase as compared to Drought Stressed Control (potted corn plants [6]): 97.6%; Growth Rate (corn plants [7]): 2.16 cm/day; Growth over 9 days (corn plants [7]): 19.41 cm; Leaf Area of L1-L5 (corn plants [7]): 356.47 cm^2; Dry Weight/Plant (corn plants [8]): 2.75 g; Growth Rate (corn plants [8]): 4.49 cm/day; Growth over 9 days (corn plants [8]): 40.4 cm

**Q.** `C=C1C[C@]23C[C@H]1CC[C@H]2[C@@]12CC[C@H](O)[C@@](C)(C(=O)O1)[C@H]2[C@@H]3C(=O)O` [GA4, gibberellin A4] was tested. Which “Dry Weight” value (corn [1]) did it give?
**A.** 7.68 g

**Q.** And the “Growth Rate” value (corn [1])?
**A.** 7.1 cm/day

**Q.** And the “Plant Growth over 9 days” value (corn [1])?
**A.** 64.1 cm

**Q.** And the “7 days Change in Height” value (corn [9])?
**A.** 33.9 cm

**Q.** And the “14 days Change in Height” value (corn [9])?
**A.** 62.2 cm

**Q.** What about the “Dry Weight” value (corn [9]) of the same molecule?
**A.** 8.1 g
